Tested on: Pyrrhocoris apterus L.
Experiment: Ovicidal activity (chemosterilizing): inhibition of egg hatching in the first and second egg batch after oral administration to adults of both sexes
Type: in vivo
Settings: drinking water
Description: The test animals were freshly emerged adults of Pyrrhocoris apterus L. and the tested compounds were administered as solutions in drinking water. The concentration 1 mg.ml^-1 corresponded to the dose of 1 mg/g/24 h. Each test was performed on a group of 10 males and 10 females and evaluated according to toxicity and hatchability of the eggs of the first and the second egg batches.

Compound	Inhibition of egg hatching in the first and second egg batch (% inhibition, related to control eggs) (0.1 mg.ml^-1 of water) [%]	Inhibition of egg hatching in the first and second egg batch (% inhibition, related to control eggs) (0.01 mg.ml^-1 of water) [%]	Inhibition of egg hatching in the first and second egg batch (% inhibition, related to control eggs) (0.05 mg.ml^-1 of water) [%]	Inhibition of egg hatching in the first and second egg batch (% inhibition, related to control eggs) (1.0 mg.ml^-1 of water (1 mg.ml^-1 corresponded to the dose of 1 mg/g/24 h)) [%]
Nc1ncnc2c1ncn2CC(CO)OCP(=O)(O)O (racemic) [2'-isomer]	27			
Nc1ncnc2c1ncn2CC(O)COCP(=O)(O)O (racemic) [3'-isomer]	61			
Nc1ncnc2c1ncn2CC(O)CO (racemic) [compound 3, (RS)-9-(2,3-dihydroxypropyl)adenine]	37	0	10	100

— US4659825A, “Isomeric O-phosphonylmethyl derivatives of enantiomeric and racemic 9-(2,3-dihydroxypropyl)adenine” (Ceskoslovenska akademie, priority 1983, dated 1987)
